Experimental data as given in patent publication EP2662081A1, “Therapeutic use of indole-dihydro-imidazole derivatives” (NOSCIRA, S.A., priority 2012, dated 2013).

Key:
[1] = biological target: T1, human recombinant Cdk5/p35 heterodimer (Homo sapiens, UniProt Q00535); assay: Cdk5 assay (Z'-LYTE FRET enzymatic activity); type: biochemical; settings: 10 nM enzyme, 12.5 µM ATP, 2 µM Ser/Thr 12 peptide, 60 min at room temperature; concentration in M units; read-out: Cdk5 inhibition pEC50 average (converted)
T1 construct: purchased Invitrogen (Life Technologies)
T1 sequence (Q00535 whole entry): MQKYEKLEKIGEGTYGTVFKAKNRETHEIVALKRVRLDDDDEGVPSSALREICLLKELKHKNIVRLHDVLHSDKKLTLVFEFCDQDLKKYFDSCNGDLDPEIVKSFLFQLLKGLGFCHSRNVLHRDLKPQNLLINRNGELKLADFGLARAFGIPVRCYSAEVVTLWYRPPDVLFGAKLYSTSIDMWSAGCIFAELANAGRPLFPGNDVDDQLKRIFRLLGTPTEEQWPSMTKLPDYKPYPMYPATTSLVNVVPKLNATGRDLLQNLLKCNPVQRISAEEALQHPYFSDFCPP
T1 sequence (Q15078 whole entry partner): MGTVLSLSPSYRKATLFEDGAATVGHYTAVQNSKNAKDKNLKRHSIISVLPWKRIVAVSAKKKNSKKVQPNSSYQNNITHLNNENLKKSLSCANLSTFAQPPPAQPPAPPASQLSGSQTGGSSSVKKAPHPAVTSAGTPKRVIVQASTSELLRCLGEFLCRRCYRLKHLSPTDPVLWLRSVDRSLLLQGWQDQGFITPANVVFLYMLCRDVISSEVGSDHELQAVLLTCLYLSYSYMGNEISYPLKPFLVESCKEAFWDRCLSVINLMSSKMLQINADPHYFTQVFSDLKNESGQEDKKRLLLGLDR
Method: The enzymatic activity of Cdk5 was determined with a commercial system based on the Z'-LYTE® technology, available from Life Technologies (Carlsbad, CA, USA), using human recombinant Cdk5/p35 heterodimer, also available from Invitrogen as the enzyme source. This technology utilizes the fluorescence resonance energy transfer ("FRET") process between fluorescein and coumarin. The assay principle is based on the differential sensitivity of phosphorylated and non-phosphorylated peptide to proteolytic cleavage, which precludes the energy transfer process between the two fluorophores attached to both sides of the cleavage site. […] The assay is performed in 384-well black plates, in a final volume of 10 µl, with 10 nM enzyme concentration, in 50 mM Hepes pH 7.5, 50 mM MgCl2, 5 mM EGTA and 0.05% Brij-35, using 12.5 µM ATP and 2 µM substrate peptide. The latter is a synthetic peptide provided by Invitrogen, under the commercial name "Ser/Thr 12 peptide", and it is based upon the sequence of Cdk7, containing Ser-164 and a (Ser/Thr)-Pro-X-(Lys/Arg) consensus sequence, wherein X is any residue. The peptide is labeled at both ends with fluorescein and coumarin. The assay is carried out in the presence of different concentrations of the tested compound, at a final 1% (v/v) DMSO concentration. After a 60 min incubation, at room temperature, 5 µl of a commercial protease solution (sold by the same vendor in the assay kit) is added and a subsequent 1h incubation at room temperature is performed, before adding 5 µl of a suitable "stop solution", also provided by the vendor in the kit. After that, fluorescence intensity is recorded, monitoring emission at both 445 and 520 nm, upon excitation at 400 nm. An emission ratio is finally calculated, using the quotient among the emission at 445 nm divided by that at 520 nm.
The emission ratio of each tested sample is normalized to that of the control wells, so that for every compound concentration the percentage of inhibition is calculated by using the following equation: % Inhibition = 100⋅(E-S)/(E-B) [formula] where "S" is the emission from the wells with the tested sample, "E" is the average emission from control wells with full enzyme activity and "B" is the average emission from wells with full enzyme inhibition. Inhibition values obtained for every compound concentration are finally used to calculate the pEC50 of the tested compound, this parameter being the negative value of the logarithm of the compound concentration, in M units, causing 50% of its maximum effect (i.e., the higher the pEC50 value the higher the potency of the compound). For that purpose the data were fitted to the following equation using the nonlinear regression function of GraphPad™ Prism 5.0 (GraphPad Software Inc.): % Inhibition = L + (H-L)/(1 + 10^(((logC+pEC50))^N)) [formula] where "L" is the lower asymptote of the theoretical sigmoidal curve, "H" is the higher asymptote, "C" is the concentration of compound in M units and "N" is the Hill coefficient.

[2] = biological target: T2, human recombinant GSK3β (N-terminal 6His-tagged recombinant enzyme with an H350L mutation) (Homo sapiens, UniProt P49841); assay: GSK-3 assay (Z'-LYTE FRET enzymatic activity); type: biochemical; settings: 2 nM enzyme, 12.5 µM ATP, 2 µM Ser/Thr 9 peptide, 60 min at room temperature; concentration in M units; read-out: GSK-3 inhibition pEC50 average (converted)
T2 construct: 6His (N); purchased Millipore (Billerica, MA, USA)
T2 sequence (P49841 whole entry, stated change not applied): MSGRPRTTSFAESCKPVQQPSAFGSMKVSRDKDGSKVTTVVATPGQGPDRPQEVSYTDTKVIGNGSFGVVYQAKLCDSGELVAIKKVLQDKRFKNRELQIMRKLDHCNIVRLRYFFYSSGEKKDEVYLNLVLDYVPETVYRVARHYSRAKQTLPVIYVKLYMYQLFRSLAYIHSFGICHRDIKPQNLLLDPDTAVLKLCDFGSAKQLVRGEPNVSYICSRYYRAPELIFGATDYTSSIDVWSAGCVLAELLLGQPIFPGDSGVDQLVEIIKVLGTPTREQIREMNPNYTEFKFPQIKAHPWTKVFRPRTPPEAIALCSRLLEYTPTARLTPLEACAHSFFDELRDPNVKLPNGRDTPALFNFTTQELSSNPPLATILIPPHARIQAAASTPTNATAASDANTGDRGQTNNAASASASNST
Method: The enzymatic activity of GSK3β was determined with a commercial system based on the Z'-LYTE® technology, available from Life Technologies (Carlsbad, CA, USA), using human recombinant GSK3β (N-terminal 6His-tagged recombinant enzyme with an H350L mutation) from Millipore (Billerica, MA, USA) as the enzyme source. This technology utilizes the fluorescence resonance energy transfer ("FRET") process between fluorescein and coumarin. The assay principle is based on the differential sensitivity of phosphorylated and non-phosphorylated peptide to proteolytic cleavage, which precludes the energy transfer process between the two fluorophores attached to both sides of the cleavage site. […] The assay is performed in 384-well black plates, in a final volume of 10 µl, with 2 nM enzyme concentration in 50 mM Hepes pH 7.5, 50 mM MgCl2, 5 mM EGTA and 0.05% Brij-35, using 12.5 µM ATP and 2 µM substrate peptide. The latter is a synthetic peptide, provided by Invitrogen under the commercial name "Ser/Thr 9 peptide", and it is based upon the sequence of a GSK3β substrate protein (glycogen synthase I) containing Ser-641. The peptide is labeled at both ends with fluorescein and coumarin. The assay is carried out in the presence of different concentrations of the tested compound, at a final 1 % (v/v) DMSO concentration. After a 60 min incubation at room temperature, 5 µl of a commercial protease solution (sold by the same vendor in the assay kit) is added and a subsequent 1h incubation at room temperature is performed, before adding 5 µl of a suitable "stop solution", also provided by the vendor in the kit. After that, fluorescence intensity is recorded, monitoring emission at both 445 and 520 nm, upon excitation at 400 nm. An emission ratio is finally calculated, using the quotient among the emission at 445 nm divided by that at 520 nm.
The emission ratios for each concentration of compound are finally used to calculate the pEC50 value, according to the procedure described above for Cdk5.

| SMILES | EC50 [1] [nM] | EC50 [2] [µM] |
| --- | --- | --- |
| CN1C(=N)NCC1c1c(C(=O)O)[nH]c2ccc(Br)cc12 (centres unmarked) [Compound 1] | 1100 | 35.5 |
| CN1CC(c2c(C(=O)O)[nH]c3ccc(Br)cc23)N(C)C1=N (centres unmarked) [Compound 2] | 2820 | 74.1 |
| CN1C(=N)NCC1c1c(C(=O)O)[nH]c2cc(O)c(Br)cc12 (centres unmarked) [Compound 3] | 95.5 | 11.2 |
| CN1CC(c2c(C(=O)O)[nH]c3cc(O)c(Br)cc23)N(C)C1=N (centres unmarked) [Compound 4] | 74.1 | 15.5 |
| CN1C(=N)N(C)C(c2c(C(=O)O)[nH]c3ccc(Br)cc23)C1O (centres unmarked) [Compound 5] | 3090 | 97.7 |
| CN1C(=N)N(C)C(c2c(C(=O)O)[nH]c3cc(O)c(Br)cc23)C1O (centres unmarked) [Compound 6] | 49 | 8.32 |
| CN1C(N)=NCC1c1c(C(=O)O)[nH]c2ccccc12 (centres unmarked) [Compound 7] | 933 | 42.7 |
